From patent US7435820B2, “Substituted tetrahydro-1H-pyrazolo [3,4-c]pyridines compositions comprising them, and use” (Aventis Pharma S.A., priority 2003, dated 2008)
Like-named read-outs stand apart in the source and are kept apart here.

Legend:
human Tie2 = target: T1, human Tie2 (Homo sapiens, UniProt Q02763); assay: Tie2 kinase inhibition: phosphorylation of GST-PLC (SH2-SH3 fragments) by GST-Tie2, 33P-ATP flashplate; format: biochemical
T1 construct: human Tie2 corresponding to amino acids 776-1124 of the intracellular domain was generated by PCR; made in house; host or cells: baculovirus expression system (vector pFastBacGT)
T1 sequence (Q02763 776-1124): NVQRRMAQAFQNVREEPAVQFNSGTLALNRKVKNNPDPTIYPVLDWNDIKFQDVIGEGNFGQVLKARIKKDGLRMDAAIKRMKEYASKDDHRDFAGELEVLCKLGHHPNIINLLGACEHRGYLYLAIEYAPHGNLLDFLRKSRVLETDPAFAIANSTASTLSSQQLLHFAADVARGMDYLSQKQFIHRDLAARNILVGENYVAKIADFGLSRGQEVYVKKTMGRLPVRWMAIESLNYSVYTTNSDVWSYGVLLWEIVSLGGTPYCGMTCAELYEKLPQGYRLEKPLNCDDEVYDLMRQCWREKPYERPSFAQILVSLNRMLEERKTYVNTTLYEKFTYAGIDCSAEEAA
Description: The coding sequence of human Tie2 corresponding to amino acids 776-1124 of the intracellular domain was generated by PCR using the cDNA isolated from human placenta as model. This sequence was introduced into a baculovirus expression vector pFastBacGT in the form of a GST fusion protein.
The inhibitory effect of the molecules is determined in an assay for phosphorylation of PLC by Tie2 in the presence of GST-Tie2 purified to approximately 80% homogeneity. The substrate is made up of the SH2-SH3 fragments of PLC, the latter being expressed in the form of a GST fusion protein.
The kinase activity of Tie2 is measured in a 20 mM MOPS buffer, pH 7.2, containing 10 mM MgCl2, 10 mM MnCl2, 1 mM DTT and 10 mM of glycerophosphate. A reaction mixture made up of 70 μl of kinase buffer containing 100 ng of GST-Tie2 enzyme per well is placed in a flashplate 96-well plate kept on ice. 10 μl of the molecule to be tested, diluted in DMSO, at a concentration of at most 10% are then added. For a given concentration, each measurement is carried out in quadruplicate. The reaction is initiated by adding 20 μl of solution containing 2 μg of GST-PLC, 2 μM of cold ATP and 1 μCi of ^33P[ATP]. After incubation for 1 hour at 37° C., the reaction is stopped by adding 1 volume (100 μl) of 200 mM EDTA. After removal of the incubation buffer, the wells are washed three times with 300 μl of PBS. The radioactivity is measured on a Wallac MicroBeta 1450.
The inhibition of the Tie2 activity is calculated and expressed as percentage inhibition with respect to the control activity determined in the absence of compound.

human KDR enzyme = target: T2, human KDR enzyme (Homo sapiens, UniProt P35968); assay: KDR kinase inhibition: phosphorylation of PLCγ SH2-SH3 substrate by KDR enzyme, 33P-ATP scintillation plate; format: biochemical
T2 construct: The cytoplasmic domain of the human KDR enzyme was cloned in GST fusion form; GST; made in house; host or cells: SF21 insect cells (baculovirus, pFastBac)
T2 sequence (P35968 786-1356 limits assumed): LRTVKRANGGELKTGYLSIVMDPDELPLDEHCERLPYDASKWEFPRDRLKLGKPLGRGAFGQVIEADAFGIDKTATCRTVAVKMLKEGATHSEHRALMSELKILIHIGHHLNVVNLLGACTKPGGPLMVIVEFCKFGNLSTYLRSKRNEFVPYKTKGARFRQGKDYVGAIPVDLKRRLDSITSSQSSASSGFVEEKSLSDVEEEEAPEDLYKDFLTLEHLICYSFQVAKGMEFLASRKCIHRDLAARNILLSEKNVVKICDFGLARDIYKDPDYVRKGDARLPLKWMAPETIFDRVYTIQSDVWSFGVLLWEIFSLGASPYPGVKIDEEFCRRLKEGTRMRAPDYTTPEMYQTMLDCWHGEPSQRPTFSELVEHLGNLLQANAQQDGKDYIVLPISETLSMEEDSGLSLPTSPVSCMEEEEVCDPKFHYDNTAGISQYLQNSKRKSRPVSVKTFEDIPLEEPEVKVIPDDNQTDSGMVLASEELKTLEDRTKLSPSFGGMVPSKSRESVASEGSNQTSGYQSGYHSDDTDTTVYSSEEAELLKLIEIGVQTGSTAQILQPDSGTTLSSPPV
Description: The inhibitory effect of the compounds is determined in an assay for phosphorylation of substrate by the KDR enzyme in vitro using a scintillation technique (96-well plate, NEN).
The cytoplasmic domain of the human KDR enzyme was cloned in GST fusion form into the baculovirus expression vector pFastBac. The protein was expressed in SF21 cells and purified to approximately 60% homogeneity. The KDR kinase activity is measured in 20 mM MOPS, 10 mM MgCl2, 10 mM MnCl2, 1 mM DTT, 2.5 mM EGTA, 10 mM b-glycerophosphate, pH=7.2, in the presence of 10 mM MgCl2, 100 μM Na3VO4 and 1 mM NaF. 10 μl of the compound are added to 70 μl of kinase buffer containing 100 ng of KDR enzyme at 4° C. The reaction is initiated by adding 20 μl of solution containing 2 μg of substrate (SH2-SH3 fragment of PLCγ expressed in the form of an GST fusion protein), 2 μCi γ ^33P[ATP] and 2 μM cold ATP. After incubation for 1 hour at 37° C., the reaction is stopped by adding 1 volume (100 μl) of 200 mM EDTA. The incubation buffer is removed and the wells are washed three times with 300 μl of PBS. The radioactivity is measured in each well using a Top Count NXT (Packard) radioactivity counter.
The background noise is determined by measuring the radioactivity in four different wells containing the radioactive ATP and the substrate alone.
A total activity control is measured in four different wells containing all the reagents (γ^33P-[ATP], KDR and PLC-γ substrate) but in the absence of compound.
The inhibition of the KDR activity with the compound of the invention is expressed as percentage inhibition of the control activity determined in the absence of compound.
The compound SU5614 (Calbiochem) (1 μM) is included in each plate as inhibition control.

[1] = Assay 1, read-out: Tie2 % Inhib at 10 μM (FRX) Assay 1
[2] = Assay 2, read-out: Tie2 % Inhib at 10 μM (FRX) Assay 2
[3] = Assay 1, read-out: KDR % Inhib at 10 μM Assay 1
[4] = Assay 2, read-out: KDR % Inhib at 10 μM Assay 2

Row | inhibition at 10 µM (human Tie2; [1]) | inhibition at 10 µM (human Tie2; [2]) | inhibition at 10 µM (human KDR enzyme; [3]) | inhibition at 10 µM (human KDR enzyme; [4]) | Structure (SMILES)
1 | 80.1% | 83.8% | 75.5% | 77.4% | Cc1cc2nc(-c3[nH]nc4c3CCN(C(=O)c3ccccc3NC(=O)c3ccc(Cl)cc3)C4)[nH]c2cc1C [Example P-31378-112-15]
2 | 88.7% | 88.3% | 90.2% | 89.1% | Cc1cc2nc(-c3[nH]nc4c3CCN(C(=O)c3ccccc3NCc3ccco3)C4)[nH]c2cc1C [Example P-31378-112-16]
